The results in this text go back to patent publication US20090069320A1, “Substituted 4-Amino-Quinazoline Compounds with Metabotropic Glutamate Receptor Regulating Activity and Uses Thereof” (Gruenenthal GmbH, priority 2006, published 2009).

Structures are written as SMILES. Structures can show the parent of a compound that is named as a salt.

T1 sequence (I3LUI7 19-1212): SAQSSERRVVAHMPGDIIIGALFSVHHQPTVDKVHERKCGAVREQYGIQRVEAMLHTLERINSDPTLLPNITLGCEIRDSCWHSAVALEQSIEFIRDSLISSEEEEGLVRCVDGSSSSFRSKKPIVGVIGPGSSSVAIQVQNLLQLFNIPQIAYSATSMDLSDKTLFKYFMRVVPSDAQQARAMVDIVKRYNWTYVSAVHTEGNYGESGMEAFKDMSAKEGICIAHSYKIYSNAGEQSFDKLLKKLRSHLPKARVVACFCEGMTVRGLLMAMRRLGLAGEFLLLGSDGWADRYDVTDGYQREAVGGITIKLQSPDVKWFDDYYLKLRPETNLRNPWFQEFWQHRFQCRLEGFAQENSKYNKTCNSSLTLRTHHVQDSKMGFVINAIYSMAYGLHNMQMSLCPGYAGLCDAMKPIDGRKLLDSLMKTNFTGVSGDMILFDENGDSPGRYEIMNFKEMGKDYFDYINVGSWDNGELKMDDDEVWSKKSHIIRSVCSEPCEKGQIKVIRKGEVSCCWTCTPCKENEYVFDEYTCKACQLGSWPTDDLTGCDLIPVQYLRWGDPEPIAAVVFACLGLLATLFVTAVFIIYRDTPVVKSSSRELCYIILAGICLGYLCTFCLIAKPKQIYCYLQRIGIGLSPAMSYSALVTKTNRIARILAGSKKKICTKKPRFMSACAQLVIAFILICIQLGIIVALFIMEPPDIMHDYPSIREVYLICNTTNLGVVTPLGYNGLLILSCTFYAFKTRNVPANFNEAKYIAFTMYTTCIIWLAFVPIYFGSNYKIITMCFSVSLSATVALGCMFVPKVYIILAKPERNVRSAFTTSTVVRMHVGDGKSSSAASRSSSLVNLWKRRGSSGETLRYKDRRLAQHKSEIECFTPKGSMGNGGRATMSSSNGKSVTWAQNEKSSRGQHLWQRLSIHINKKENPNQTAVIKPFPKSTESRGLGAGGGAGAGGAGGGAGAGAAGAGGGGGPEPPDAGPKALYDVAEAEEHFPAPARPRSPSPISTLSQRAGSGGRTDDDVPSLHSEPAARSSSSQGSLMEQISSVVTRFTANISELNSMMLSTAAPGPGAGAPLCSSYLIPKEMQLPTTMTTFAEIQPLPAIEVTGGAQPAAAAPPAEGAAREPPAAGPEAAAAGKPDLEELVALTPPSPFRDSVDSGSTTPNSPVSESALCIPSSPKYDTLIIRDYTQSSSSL

The first experiment concerns the target T1, mGluR5 receptor (Sus scrofa, UniProt I3LUI7).
T1 construct: 450 μg of protein from brain homogenate with 5 nM ^3[H]-MPEP; from tissue; host or cells: pig brain halves without medulla, cerebellum and pons
As to the kind of experiment: [3H]-MPEP mGluR5 receptor binding assay (pig brain homogenate). The conditions noted are these: 5 nM [3H]-MPEP, read-out: IC50 mGluR5 Receptor (pig) [^3H]-MPEP Bond. The procedure, abridged: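 Radioligand displacement of 5 nM [3H]-MPEP from pig brain homogenate (450 μg protein; medulla, cerebellum and pons removed) in 20 mM Hepes pH 8.0. Compounds were tested at 10 μM, incubated 60 min at room temperature, then filtered and counted by scintillation. Non-specific binding was defined with 10 μM MPEP.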
Consider `COc1ccc(CN(C(=O)c2ccccc2)C2CC2)cc1-c1ccc2ncnc(NC3CC3)c2c1` [Example 268, N-cyclopropyl-N-(3-(4-(cyclopropylamino)quinazolin-6-yl)-4-methoxybenzyl)benzamide], for which the IC50 turned out to be 5410 nM.

Consider `CC(=O)N(C)Cc1cccc(-c2ccc3ncnc(NC4CC4)c3c2)c1` [Example 221, N-[3-(4-cyclopropylamino-quinazolin-6-yl)-benzyl]-N-methyl-acetamide], for which the IC50 worked out at 5360 nM.

In the case of `O=C(c1ccncc1)N(Cc1cccc(-c2ccc3ncnc(NC4CC4)c3c2)c1)C1CC1` [Example 257, N-cyclopropyl-N-[3-(4-cyclopropylamino-quinazolin-6-yl)-benzyl]-isonicotinamide], the IC50 is 740 nM.

Take `CC(=O)N(Cc1cc(F)cc(-c2ccc3ncnc(NC4CC4)c3c2)c1)C1CC1` [Example 897, N-cyclopropyl-N-(3-(4-(cyclopropylamino)quinazolin-6-yl)-5-fluorobenzyl)acetamide]: the IC50 stood at 20 nM.

In the case of `CC1CCC(=O)N1Cc1cccc(-c2ccc3ncnc(NC4CC4)c3c2)c1` (stereo not drawn) [Example 885, 1-(3-(4-(cyclopropylamino)quinazolin-6-yl)benzyl)-5-methylpyrrolidine-2-one], the IC50 is 400 nM.

Take `CC(=O)N(Cc1cccc(-c2ccc3ncnc(NC4CC4)c3c2)c1F)C1CC1` [Example 191, N-cyclopropyl-N-(3-(4-(cyclopropylamino)quinazolin-6-yl)-2-fluorobenzyl)acetamide]: the half-maximal inhibitory concentration (IC50) turned out to be 670 nM.

Regarding `N#CCC(=O)N(Cc1cc(-c2ccc3ncnc(NC4CC4)c3c2)ccc1F)C1CC1` [Example 281, 2-cyano-N-cyclopropyl-N-(5-(4-(cyclopropylamino)quinazolin-6-yl)-2-fluorobenzyl)acetamide hydrochloride], the IC50 turned out to be 30 nM.

Still in this experiment, the particulars now being: 10 μM compound, 5 nM [3H]-MPEP.
Consider `O=S(=O)(c1ccccc1)N(Cc1cc(-c2ccc3ncnc(NC4CC4)c3c2)ccc1Cl)C1CC1` [Example 799, N-(2-chloro-5-(4-(cyclopropylamino)quinazolin-6-yl)benzyl)-N-cyclopropyl benzole sulfonamide], for which the “% Inhibition of mGluR5 Receptor (pig) [^3H]-MPEP Bond at 10 μM” value (“% Inhibition of mGluR5 Receptor (pig)” below) came out at 92%.

In the case of `O=S(=O)(c1ccc(Cl)cc1Cl)N(Cc1cc(-c2ccc3ncnc(NC4CC4)c3c2)ccn1)C1CC1` [Example 796, 2,4-dichloro-N-cyclopropyl-N-((4-(4-(cyclopropylamino)quinazolin-6-yl)pyridin-2-yl)methyl)benzole sulfonamide], the “% Inhibition of mGluR5 Receptor (pig)” value is 78%.

As to `O=S(=O)(c1c(F)c(F)c(F)c(F)c1F)N(Cc1cc(-c2ccc3ncnc(NC4CC4)c3c2)ccc1F)C1CC1` [Example 399, N-cyclopropyl-N-(5-(4-(cyclopropylamino)quinazolin-6-yl)-2-fluorobenzyl)-2,3,4,5,6-pentafluorobenzole sulfonamide], the “% Inhibition of mGluR5 Receptor (pig)” value came out at 39%.

For the compound `CC(C)(C)Nc1ncnc2ccc(-c3ccc(F)c(CN(C(=O)c4cccs4)C4CC4)c3)cc12` [Example 819, N-(5-(4-(tert-butylamino)quinazolin-6-yl)-2-fluorobenzyl)-N-cyclopropyl thiophene-2-carboxamide], the “% Inhibition of mGluR5 Receptor (pig)” value is 88%.

On to `O=C(c1cccnc1)N(Cc1cc(-c2ccc3ncnc(NC4CC4)c3c2)ccc1Cl)C1CC1` [Example 770, N-(2-chloro-5-(4-(cyclopropylamino)quinazolin-6-yl)benzyl)-N-cyclopropyl nicotinamide], for which the “% Inhibition of mGluR5 Receptor (pig)” value is recorded as 84%.

In the case of `CN(Cc1cccc(-c2ccc3ncnc(NC4CC4)c3c2)c1)S(C)(=O)=O` [Example 223, N-(3-(4-(cyclopropylamino)quinazolin-6-yl)benzyl)-N-methyl methane sulfonamide], the “% Inhibition of mGluR5 Receptor (pig)” value came to 51%.

As for `CC(C)(C)Nc1ncnc2ccc(-c3ccc(F)c(CN(C(=O)c4ccncc4)C4CC4)c3)cc12` [Example 832, N-(5-(4-(tert-butylamino)quinazolin-6-yl)-2-fluorobenzyl)-N-cyclopropyl isonicotinamide], the “% Inhibition of mGluR5 Receptor (pig)” value is 96%.

Staying with this experiment, now noted: 10 μM compound, 5 nM [3H]-MPEP, read-out: % Inhibition of mGluR5 Receptor (pig) [^3H]-MPEP Bond at 10 μM.
In the case of `CC(C)Nc1ncnc2ccc(-c3cccc(CN(Cc4ccccc4)C(=O)c4ccncc4)c3)cc12` [Example 151, N-benzyl-N-[3-(4-isopropylamino-quinazolin-6-yl)-benzyl]-isonicotinamide], the inhibition at 10 µM was 66%.

In the case of `O=S(=O)(Cc1ccccc1)N(Cc1cc(-c2ccc3ncnc(NC4CC4)c3c2)ccc1F)C1CC1` [Example 437, N-cyclopropyl-N-(5-(4-(cyclopropylamino)quinazolin-6-yl)-2-fluorobenzyl)-1-phenylmethane sulfonamide], the inhibition at 10 µM worked out at 90%.

For `CC(C)(C)C(=O)N(Cc1cc(-c2ccc3ncnc(NC4CC4)c3c2)ccn1)C1CC1` [Example 828, N-cyclopropyl-N-((4-(4-(cyclopropylamino)quinazolin-6-yl)pyridin-2-yl)methyl)pivalamide], the inhibition at 10 µM stood at 74%.

Turning to `O=C1C=CC(=O)N1Cc1cc(-c2ccc3ncnc(NC4CC4)c3c2)ccc1F` [Example 192, 1-(5-(4-(cyclopropylamino)quinazolin-6-yl)-2-fluorobenzyl)-1H-pyrrole-2,5-dione], the inhibition at 10 µM was determined as 41%.

Consider `CCCN(Cc1cccc(-c2ccc3ncnc(Nc4ccccc4)c3c2)c1)C(=O)c1cccs1` [Example 116, thiophene-2-carboxylic acid [3-(4-phenylamino-quinazolin-6-yl)-benzyl]-propyl-amide], for which the inhibition at 10 µM was determined as 47%.

Consider `COc1ccc(C(=O)N(Cc2cc(-c3ccc4ncnc(NC(C)(C)C)c4c3)ccc2F)C2CC2)cc1OC` [Example 843, N-(5-(4-(tert-butylamino)quinazolin-6-yl)-2-fluorobenzyl)-N-cyclopropyl-3,4-dimethoxybenzamide], for which the inhibition at 10 µM was determined as 71%.

On to `O=C(c1ccncc1)N(Cc1cccc(-c2cc(F)c3ncnc(NC4CC4)c3c2)c1)C1CC1` [Example 736, N-cyclopropyl-N-(3-(4-(cyclopropylamino)-8-fluoroquinazolin-6-yl)benzyl)isonicotinamide], for which the inhibition at 10 µM stood at 91%.

In the case of `O=C(c1ccccc1C(F)(F)F)N(Cc1cccc(-c2ccc3ncnc(N4CCCC4)c3c2)c1)C1CC1` [Example 135, N-cyclopropyl-N-[3-(4-pyrrolidin-1-yl-quinazolin-6-yl)-benzyl]-2-trifluoromethyl-benzamide], the inhibition at 10 µM stood at 32%.

In the case of `O=C(c1cccnc1)N(Cc1cccc(-c2cc(F)c3ncnc(NC4CC4)c3c2)c1)C1CC1` [Example 781, N-cyclopropyl-N-(3-(4-(cyclopropylamino)-8-fluoroquinazolin-6-yl)benzyl)nicotinamide], the inhibition at 10 µM is 67%.

Consider `Cc1nc(NC2CC2)c2cc(-c3ccc(F)c(CN(C(=O)c4csc(C)n4)C4CC4)c3)ccc2n1` [Example 624, N-cyclopropyl-N-(5-(4-(cyclopropylamino)-2-methylquinazolin-6-yl)-2-fluorobenzyl)-2-methylthiazole-4-carboxamide], for which the inhibition at 10 µM stood at 75%.

As to `O=C1CCC(=O)N1Cc1cccc(-c2ccc3nc(NCc4ccccc4)nc(NC4CC4)c3c2)c1` [Example 291, 1-(3-(2-(benzylamino)-4-(cyclopropylamino)quinazolin-6-yl)benzyl)pyrrolidine-2,5-dione], the inhibition at 10 µM amounted to 49%.

As to `CC(C)Nc1ncnc2ccc(-c3cccc(CN(Cc4ccccc4)C(=O)c4cccnc4)c3)cc12` [Example 153, N-benzyl-N-[3-(4-isopropylamino-quinazolin-6-yl)-benzyl]-nicotinamide], the inhibition at 10 µM is 63%.

For `COCCNc1ncnc2ccc(-c3cccc(CN4C(=O)CCC4=O)c3)cc12` [Example 867, 1-(3-(4-(2-methoxyethylamino)quinazolin-6-yl)benzyl)pyrrolidine-2,5-dione hydrochloride], the inhibition at 10 µM was 67%.

For `O=C(c1cccc(F)c1)N(Cc1cccc(-c2cc(F)c3ncnc(NC4CC4)c3c2)c1)C1CC1` [Example 727, N-cyclopropyl-N-(3-(4-(cyclopropylamino)-8-fluoroquinazolin-6-yl)benzyl)-3-fluorobenzamide], the inhibition at 10 µM amounted to 93%.

`O=S(=O)(c1cccs1)N(Cc1cccc(-c2cc(F)c3ncnc(NC4CC4)c3c2)c1)C1CC1` [Example 701, N-cyclopropyl-N-(3-(4-(cyclopropylamino)-8-fluoroquinazolin-6-yl)benzyl)thiophene-2-sulfonamide]: the inhibition at 10 µM was determined as 93%.

As for `O=C(c1cccc(C(F)(F)F)c1)N(Cc1cccc(-c2cc(F)c3ncnc(NC4CC4)c3c2)c1)C1CC1` [Example 728, N-cyclopropyl-N-(3-(4-(cyclopropylamino)-8-fluoroquinazolin-6-yl)benzyl)-3-(trifluoromethyl)benzamide], the inhibition at 10 µM came to 63%.

For the compound `CCCCC(=O)N(Cc1cc(-c2ccc3nc(C)nc(NC4CC4)c3c2)ccc1F)C1CC1` [Example 540, N-cyclopropyl-N-(5-(4-(cyclopropylamino)-2-methylquinazolin-6-yl)-2-fluorobenzyl)pentanamide], the inhibition at 10 µM turned out to be 91%.

Consider `CC(C)CN(Cc1cccc(-c2ccc3ncnc(N4CCOCC4)c3c2)c1)C(=O)c1cccs1` [Example 29, thiophene-2-carboxylic acid isobutyl-[3-(4-morpholin-4-yl-quinazolin-6-yl)-benzyl]-amide], for which the inhibition at 10 µM came out at 46%.

The same experiment, now with this note: IC50 mGluR5 Receptor (pig) [^3H]-MPEP Bond, 5 nM [3H]-MPEP.
As for `ClCCNCc1cccc(-c2ccc3ncnc(NC4CC4)c3c2)c1` [Example 315, 6-(3-((2-chloroethylamino)methyl)phenyl)-N-cyclopropylquinazoline-4-amine], the IC50 was 2740 nM.
